ChEMBL document CHEMBL3132769, “Fragment growing to retain or alter the selectivity of anchored kinase hinge-binding fragments” (Medchemcomm, 2014)

Experiments:
[1] = molecular target: Protein kinase C beta type (Homo sapiens) (UniProt P05771); test: Inhibition of human truncated PKC beta1 expressed in baculovirus assessed as substrate phosphorylation using fluorescence-labelled peptides as substrate at 420 uM after 90 mins by microfluidic peptide phosphorylation assay
[2] = molecular target: Ribosomal protein S6 kinase alpha-1 (Homo sapiens) (UniProt Q15418); test: Inhibition of human full length RSK1 expressed in baculovirus assessed as substrate phosphorylation using fluorescence-labelled peptides as substrate at 420 uM after 90 mins by microfluidic peptide phosphorylation assay
[3] = molecular target: T1, Serine/threonine-protein kinase 3 (Homo sapiens) (UniProt Q13188); test: Inhibition of human full length MST2 expressed in baculovirus assessed as substrate phosphorylation using fluorescence-labelled peptides as substrate at 95 uM after 90 mins by microfluidic peptide phosphorylation assay
T1 sequence (whole entry): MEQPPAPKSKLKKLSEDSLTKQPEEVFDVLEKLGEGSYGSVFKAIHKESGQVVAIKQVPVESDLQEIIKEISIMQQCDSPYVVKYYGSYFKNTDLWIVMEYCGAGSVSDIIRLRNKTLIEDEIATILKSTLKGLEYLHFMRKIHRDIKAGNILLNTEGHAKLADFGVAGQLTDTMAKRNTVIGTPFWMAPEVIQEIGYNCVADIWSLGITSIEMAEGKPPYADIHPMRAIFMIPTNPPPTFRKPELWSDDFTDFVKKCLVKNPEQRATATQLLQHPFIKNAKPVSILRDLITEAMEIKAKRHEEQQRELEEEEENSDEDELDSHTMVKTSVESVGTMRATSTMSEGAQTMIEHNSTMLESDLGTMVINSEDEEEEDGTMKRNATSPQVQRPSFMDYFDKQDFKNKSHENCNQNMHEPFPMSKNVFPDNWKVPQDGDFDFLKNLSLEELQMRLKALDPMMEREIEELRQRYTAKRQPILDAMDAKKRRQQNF

[4] = molecular target: T2, Serine/threonine-protein kinase BRSK2 (Homo sapiens) (UniProt Q8IWQ3); test: Inhibition of human truncated BRSK2 expressed in baculovirus assessed as substrate phosphorylation using fluorescence-labelled peptides as substrate at 95 uM after 90 mins by microfluidic peptide phosphorylation assay
T2 sequence (whole entry): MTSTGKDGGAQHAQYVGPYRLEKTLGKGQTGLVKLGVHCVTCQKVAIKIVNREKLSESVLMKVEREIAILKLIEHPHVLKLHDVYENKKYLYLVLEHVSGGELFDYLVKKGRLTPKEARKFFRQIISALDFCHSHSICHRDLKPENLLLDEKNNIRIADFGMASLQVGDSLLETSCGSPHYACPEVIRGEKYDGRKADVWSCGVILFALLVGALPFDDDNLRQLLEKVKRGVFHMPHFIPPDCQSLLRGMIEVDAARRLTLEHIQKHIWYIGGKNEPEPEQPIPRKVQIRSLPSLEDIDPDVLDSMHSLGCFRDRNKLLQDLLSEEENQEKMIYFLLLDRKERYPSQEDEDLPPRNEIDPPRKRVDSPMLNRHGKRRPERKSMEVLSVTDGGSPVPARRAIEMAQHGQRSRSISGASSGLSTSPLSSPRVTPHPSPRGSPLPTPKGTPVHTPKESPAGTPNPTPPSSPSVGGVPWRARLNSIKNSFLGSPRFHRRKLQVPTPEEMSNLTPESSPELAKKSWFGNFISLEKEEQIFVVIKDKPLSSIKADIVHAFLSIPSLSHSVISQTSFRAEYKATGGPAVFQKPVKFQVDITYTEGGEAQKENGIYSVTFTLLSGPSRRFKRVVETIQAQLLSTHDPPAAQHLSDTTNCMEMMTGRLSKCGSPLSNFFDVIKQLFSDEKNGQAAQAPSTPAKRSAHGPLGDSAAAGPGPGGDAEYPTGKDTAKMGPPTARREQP

[5] = molecular target: Cyclin-dependent kinase 2 (Homo sapiens) (UniProt P24941); test: Inhibition of human full length CDK2 expressed in baculovirus assessed as substrate phosphorylation using fluorescence-labelled peptides as substrate at 9 uM after 90 mins by microfluidic peptide phosphorylation assay
[6] = molecular target: MAP kinase-activated protein kinase 3 (Homo sapiens) (UniProt Q16644); test: Inhibition of human full length MAPKAPK3 expressed in Escherichia coli cell assessed as substrate phosphorylation using fluorescence-labelled peptides as substrate at 2 uM after 90 mins by microfluidic peptide phosphorylation assay
[7] = molecular target: T3, Serine/threonine-protein kinase DCLK2 (Homo sapiens) (UniProt Q8N568); test: Inhibition of human full length DCAMKL2 expressed in baculovirus assessed as substrate phosphorylation using fluorescence-labelled peptides as substrate at 0.1 uM after 90 mins by microfluidic peptide phosphorylation assay
T3 sequence (whole entry): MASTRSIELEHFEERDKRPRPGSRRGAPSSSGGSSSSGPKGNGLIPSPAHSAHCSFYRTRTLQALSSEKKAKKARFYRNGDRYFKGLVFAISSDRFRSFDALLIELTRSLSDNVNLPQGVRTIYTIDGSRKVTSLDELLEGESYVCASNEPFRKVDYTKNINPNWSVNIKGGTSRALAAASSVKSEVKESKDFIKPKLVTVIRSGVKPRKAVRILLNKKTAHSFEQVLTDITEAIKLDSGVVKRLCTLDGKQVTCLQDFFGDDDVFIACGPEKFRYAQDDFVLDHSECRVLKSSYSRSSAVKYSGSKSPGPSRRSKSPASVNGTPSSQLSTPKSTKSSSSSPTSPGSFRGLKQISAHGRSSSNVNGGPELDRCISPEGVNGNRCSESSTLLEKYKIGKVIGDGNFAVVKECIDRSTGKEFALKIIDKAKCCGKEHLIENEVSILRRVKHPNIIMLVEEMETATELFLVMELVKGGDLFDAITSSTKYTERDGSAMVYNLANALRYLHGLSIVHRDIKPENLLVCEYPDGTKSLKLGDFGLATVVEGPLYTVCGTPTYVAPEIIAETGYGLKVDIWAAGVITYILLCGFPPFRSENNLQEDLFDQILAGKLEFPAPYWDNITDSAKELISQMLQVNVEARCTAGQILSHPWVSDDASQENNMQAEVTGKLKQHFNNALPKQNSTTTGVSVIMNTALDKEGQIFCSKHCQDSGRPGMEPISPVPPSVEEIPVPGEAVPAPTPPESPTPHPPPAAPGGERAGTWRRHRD

Chain of Ribosomal protein S6 kinase alpha-1 (Homo sapiens) (Q15418 whole entry): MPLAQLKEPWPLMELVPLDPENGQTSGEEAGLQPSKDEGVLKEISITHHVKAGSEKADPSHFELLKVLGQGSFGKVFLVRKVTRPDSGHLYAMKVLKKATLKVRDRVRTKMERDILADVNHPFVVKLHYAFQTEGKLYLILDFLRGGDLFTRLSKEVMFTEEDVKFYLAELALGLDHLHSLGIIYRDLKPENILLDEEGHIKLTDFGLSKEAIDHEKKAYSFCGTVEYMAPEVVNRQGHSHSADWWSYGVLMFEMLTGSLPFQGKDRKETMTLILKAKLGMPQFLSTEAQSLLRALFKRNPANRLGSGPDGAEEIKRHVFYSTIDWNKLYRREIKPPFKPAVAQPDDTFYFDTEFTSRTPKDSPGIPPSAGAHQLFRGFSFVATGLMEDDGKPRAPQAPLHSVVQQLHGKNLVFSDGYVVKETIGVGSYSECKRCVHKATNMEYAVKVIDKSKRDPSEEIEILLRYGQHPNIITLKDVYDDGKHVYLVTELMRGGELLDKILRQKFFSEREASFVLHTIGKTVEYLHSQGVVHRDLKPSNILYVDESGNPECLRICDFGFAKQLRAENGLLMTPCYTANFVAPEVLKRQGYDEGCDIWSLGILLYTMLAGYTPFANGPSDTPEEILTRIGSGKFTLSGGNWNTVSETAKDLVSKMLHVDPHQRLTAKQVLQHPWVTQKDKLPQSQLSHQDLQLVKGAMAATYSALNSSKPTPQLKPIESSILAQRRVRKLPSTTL
Chain of Protein kinase C beta type (Homo sapiens) (P05771 2-671 limits assumed): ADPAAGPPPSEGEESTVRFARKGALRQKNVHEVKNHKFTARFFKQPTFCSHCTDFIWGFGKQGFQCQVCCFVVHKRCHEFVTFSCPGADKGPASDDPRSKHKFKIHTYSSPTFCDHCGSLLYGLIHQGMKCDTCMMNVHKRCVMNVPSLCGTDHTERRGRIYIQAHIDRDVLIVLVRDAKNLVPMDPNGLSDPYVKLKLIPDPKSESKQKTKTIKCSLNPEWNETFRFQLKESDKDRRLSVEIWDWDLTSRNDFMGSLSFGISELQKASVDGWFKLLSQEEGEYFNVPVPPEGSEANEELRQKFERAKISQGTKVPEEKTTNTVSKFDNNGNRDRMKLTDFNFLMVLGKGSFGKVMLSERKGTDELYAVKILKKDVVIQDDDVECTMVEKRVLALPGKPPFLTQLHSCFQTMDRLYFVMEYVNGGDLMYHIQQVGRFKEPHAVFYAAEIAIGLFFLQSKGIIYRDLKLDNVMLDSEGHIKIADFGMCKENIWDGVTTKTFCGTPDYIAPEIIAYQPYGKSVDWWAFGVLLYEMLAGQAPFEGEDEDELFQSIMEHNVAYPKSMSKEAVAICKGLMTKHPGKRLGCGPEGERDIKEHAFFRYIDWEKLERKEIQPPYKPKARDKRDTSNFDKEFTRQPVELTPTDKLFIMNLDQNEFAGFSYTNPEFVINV
Chain of MAP kinase-activated protein kinase 3 (Homo sapiens) (Q16644 whole entry, looked up): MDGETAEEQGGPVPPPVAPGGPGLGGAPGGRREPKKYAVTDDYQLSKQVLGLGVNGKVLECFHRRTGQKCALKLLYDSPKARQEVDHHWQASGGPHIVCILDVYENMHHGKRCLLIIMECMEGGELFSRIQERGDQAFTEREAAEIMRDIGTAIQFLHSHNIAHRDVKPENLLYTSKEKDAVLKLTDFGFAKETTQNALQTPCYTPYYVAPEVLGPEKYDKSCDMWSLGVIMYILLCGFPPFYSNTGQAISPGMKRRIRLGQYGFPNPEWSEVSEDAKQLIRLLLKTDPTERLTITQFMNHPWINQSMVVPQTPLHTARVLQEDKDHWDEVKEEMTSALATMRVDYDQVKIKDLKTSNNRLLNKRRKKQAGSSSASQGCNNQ

Question: Which inhibition [1] does the source give for `c1nc(N2CCOCC2)c2nc[nH]c2n1` here?
Answer: 70%

Question: What about the inhibition [2] of the same molecule?
Answer: 87%

Question: With `NCCc1ccc(-c2ncnc3[nH]cnc23)cc1` as the molecule, how does the inhibition [3] read?
Answer: 86.5%

Question: What about the inhibition [4] of the same molecule?
Answer: 40%

Question: With `NCC1CN(c2ncnc3[nH]c4cnccc4c23)CCO1` (configuration not stated) as the molecule, how does the inhibition [5] read?
Answer: 26.5%

Question: How did the inhibition [6] turn out when `NC1CCN(c2ncnc3[nH]ccc23)CC1` was run?
Answer: 45.5%

Question: With `C[C@H](CN(C)C)Oc1nc(Nc2cc3cccc(Cl)c3cn2)cnc1C#N` as the molecule, how does the inhibition [7] read?
Answer: 6%
